Source: ChEMBL document CHEMBL1201862, “PubChem BioAssay data set” (2004)
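All cell lines were grown in 96-well plates and treated with compound for 48 hours. At the GI50, growth is halved.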 The source made the active and inactive calls. Rule as the data show it: active = GI50 up to about 1.1 µM and inactive = higher.

What was measured:
Assay in all cases: growth of human tumour cells (NCI), 48 h
[1] = system: DLD-1
[2] = system: DMS-273
[3] = system: RXF 631
[4] = system: KM-20L2
[5] = system: LXFL 529
[6] = system: DMS-114
[7] = system: XF498
[8] = system: M19-MEL
[9] = system: HOP-18

Measured: GI50

O=c1cc(O)cc2n1CCC2
inactive: [1] > 100 µM | [2] > 100 µM | [3] > 100 µM | [4] > 100 µM | [5] > 100 µM | [6] > 100 µM | [7] > 100 µM

COC(=O)/C(=N\NC(N)=O)C(C(=O)C(=O)Nc1ccccc1C(=O)OC)c1nc2ccc(C(=O)c3ccccc3)cc2nc1O (configuration not stated)
inactive: [8] > 100 µM | [1] > 100 µM | [9] > 100 µM | [2] > 100 µM | [3] > 100 µM | [4] > 100 µM | [5] > 100 µM | [6] > 100 µM | [7] > 100 µM

COc1ccc(/C(=N\NC(=O)C(=O)NN)C(c2ccc(OC)cc2)C2(O)C(=O)Nc3ccccc32)cc1 (configuration not stated)
inactive: [8] > 100 µM | [1] 51.4 µM | [2] > 100 µM | [3] > 100 µM | [4] > 100 µM | [5] 29 µM | [6] 64.3 µM | [7] 29.6 µM

O=C1C2C3CC4C5C3C1C5C1(SCCS1)C42 (configuration not stated)
inactive: [8] > 100 µM | [1] > 100 µM | [9] > 100 µM | [2] > 100 µM | [4] > 100 µM | [5] > 100 µM | [6] > 100 µM

Cc1ccccc1C(=O)Oc1ccc(O)cc1
inactive: [8] > 100 µM | [1] > 100 µM | [9] > 100 µM | [2] > 100 µM | [3] > 100 µM | [4] > 100 µM

CCOC(=O)C(=O)Nc1cccc(Cl)c1C
inactive: [8] > 100 µM | [1] > 100 µM | [9] > 100 µM | [3] > 100 µM | [5] > 100 µM | [6] > 100 µM | [7] 49.8 µM

N#CCCN(c1ccc(C=O)cc1)S(=O)(=O)c1ccccc1
inactive: [8] > 100 µM | [2] > 100 µM | [4] > 100 µM | [5] > 100 µM | [6] > 100 µM | [7] > 100 µM

Cn1c(=O)nc2n(-c3ccc(Cl)cc3)c3ccc(Cl)cc3nc-2c1=O
inactive: [4] 4.88 µM

CCN(CC)CCn1c2c3ccccc3ccc2c2oc(=O)c3ccccc3c21
inactive: [8] > 100 µM | [1] > 100 µM | [9] > 100 µM | [3] > 100 µM | [4] > 100 µM | [5] > 100 µM | [6] > 100 µM | [7] > 100 µM

Cc1cc(O)nc(CNC(=O)Cc2ccccc2)n1
inactive: [8] > 100 µM | [1] > 100 µM | [2] > 100 µM | [4] > 100 µM | [5] > 100 µM | [6] > 100 µM | [7] > 100 µM

CC1=COC(=O)c2ccccc2N1
inactive: [8] > 100 µM | [1] > 100 µM | [2] > 100 µM | [4] > 100 µM | [5] > 100 µM | [6] > 100 µM

CCN(CC)CCNC(=O)c1ccccc1NC(=O)C(=O)Nc1ccccc1C(=O)NCCN(CC)CC
inactive: [8] 22.8 µM | [1] 63.4 µM | [9] > 100 µM | [2] > 100 µM | [3] > 100 µM | [4] 37.7 µM | [6] 32.2 µM

O=C(Nc1ccc(C(F)(F)F)cc1[N+](=O)[O-])C(=O)C(C(=O)c1ccc2ccccc2c1)C1OC(=O)c2ccccc21 (configuration not stated)
inactive: [8] 8.89 µM | [1] 6.9 µM | [4] 20.6 µM | [5] 5.18 µM | [6] 8.71 µM

COc1cc2ccc3c4cc(OC)c(OC)cc4c[n+](C)c3c2cc1O
inactive: [8] > 100 µM | [1] > 100 µM | [9] > 100 µM | [2] 55.5 µM | [4] > 100 µM | [5] 12.6 µM | [6] 8.99 µM | [7] 24.7 µM

CCOC(=O)C(C(=O)c1ccccc1)=C1NCCN1
inactive: [8] > 100 µM | [1] > 100 µM | [9] 4.06 µM | [3] > 100 µM | [4] > 100 µM | [5] > 100 µM | [7] > 100 µM

COS(=O)(=O)OCCC(NC(=O)OCc1ccccc1)C(=O)OCc1ccccc1 (configuration not stated)
inactive: [8] > 100 µM | [1] > 100 µM | [9] > 100 µM | [2] > 100 µM | [4] > 100 µM | [5] > 100 µM | [6] > 100 µM

O=C(N/N=C/c1cccc(O)c1O)N/N=C/c1cccc(O)c1O
inactive: [8] 22.4 µM | [9] 19.2 µM | [2] 22.9 µM | [4] 29.3 µM | [5] 16.7 µM | [6] > 100 µM | [7] 19.1 µM

FC(F)(F)c1ccc(/C=N/C23CC4CC(CC(C4)C2)C3)cc1
inactive: [2] > 100 µM | [4] > 100 µM | [6] > 100 µM

CCCCN(CC)C(=O)C(=O)C1C(=O)Nc2ccccc2[S+]1[O-] (configuration not stated)
inactive: [8] > 100 µM | [1] > 100 µM | [9] > 100 µM | [2] > 100 µM | [4] > 100 µM | [5] > 100 µM | [6] > 100 µM

CCN1N=CSC12C(=O)N(c1ccccc1)C(=O)N2c1ccccc1 (configuration not stated)
inactive: [1] > 100 µM | [9] > 100 µM | [3] > 100 µM | [4] > 100 µM | [5] > 100 µM | [6] 57.8 µM | [7] 32.7 µM

CC(C)(C)C1CCC(=O)C(C(O)CC2CC(=O)N(c3ccccc3)C(=O)C2)C1 (configuration not stated)
inactive: [8] > 100 µM | [1] > 100 µM | [9] > 100 µM | [2] > 100 µM | [3] 56.8 µM | [4] > 100 µM | [5] > 100 µM | [6] > 100 µM | [7] > 100 µM

COc1ccc(S(=O)(=O)N(CC(=O)O)c2ccccc2)cc1
inactive: [8] > 100 µM | [1] > 100 µM | [9] > 100 µM | [2] > 100 µM | [4] > 100 µM | [5] > 100 µM

COc1ccc(C2Cc3cc(OC)c(OC)c(OC)c3C2=O)cc1 (configuration not stated)
inactive: [8] > 100 µM | [1] > 100 µM | [9] > 100 µM | [2] > 100 µM | [4] > 100 µM | [6] 76.6 µM | [7] 2 µM
